Assays:
rats = test: Test A: administration by infusion (rats), recovery after termination of infusion; format: in vivo, rat (Sprague-Dawley)
Experimental: (§1) Test compounds, e.g., representative compounds of the invention as well as the comparison compound, propanidid, were formulated in (1) 10% cremophor EL/90% D5W (5% dextrose in distilled water) (2) 10% Liposyn® III (Intravenous Fat Emulsion, containing (per 100 mL) 10 g soybean oil, 1.2 g egg phosphatides and […]), available from Abbott Laboratories, North Chicago, Ill.; and (3) injections (10) or (11) (as described in Example 16) with Miglyol® 810 (caprylic/capric glyceride). Typically, formulation (1) above was used for bolus dosing and formulations (2) or (3) for infusion dosing. Compounds of the invention and propanidid were synthesized as described in Examples 1-15 below. Propofol formulated in soybean oil, sold as Diprivan® injectable emulsion was obtained from AstraZeneca (Wilmington, Del.).
Administration by Infusion (Rats)
Rats (adult Sprague-Dawley) were placed in a perspex restrainer and anesthesia induced by bolus injection via the tail vein (0.15-1 mL/kg over approximately 3 seconds at a dose, estimated from the earlier bolus experiments, to produce anesthesia of approximately 2 minutes duration). Immediately after bolus administration, an infusion (with a duration of typically 20, 180 or 300 minutes), via the tail vein, was commenced (0.075-0.5 mL/kg/min at a half of the bolus dose/min). In some experiments, the initial infusion rate was maintained throughout, while in others, the rate was modified as necessary to maintain a consistent depth of anesthesia (as defined by moderate paw withdrawal in response to noxious pinch). Following completion of the infusion, duration of anesthesia (i.e. duration of loss of righting reflex) and behavioral recovery (i.e. duration of ataxia, sedation or lethargy following return of the righting reflex) was recorded.
Administration by infusion (rats): Recovery times following termination of administration by infusion in rats were determined for compound 1 and for the comparison compounds propofol and propanidid. The duration of the loss of righting reflex (in minutes) following termination of infusion is given as a function of duration of infusion in Table 2 below.

guinea pigs = test: Test A: bolus administration (guinea pigs), loss of righting reflex; format: in vivo, guinea pig; conditions: bolus via ear vein, calculated from dose response
Experimental: as §1
Bolus Administration (Guinea Pigs)
Adult male guinea pigs were dosed by bolus administration (0.1-0.25 mL volume) via an ear vein. Duration of loss of righting reflex was measured as described above for rats.
Bolus administration (guinea pigs): The potency of compound 1 was also tested in guinea pigs by the analogous procedure. The dose of compound 1 required to produce 2 minutes of loss of righting reflex in guinea pigs was calculated to be 8 mg/kg, as compared with a dose of 13 mg/kg for propanidid.

[1] = 20 minute Infusion via tail vein

With `CC(C)c1cccc(C(C)C)c1O` [Propofol, 2,6-diisopropylphenol] the “Duration of Loss of Righting Reflex Following Termination of Infusion” value (“Duration of Loss … of Infusion” below) (rats; [1]) was 30.0 ± 2.9 min, the “Duration of Loss … of Infusion” value (rats; 3 hour Infusion via tail vein) was 47.8 ± 5.3 min and the “Duration of Loss … of Infusion” value (rats; 5 hour Infusion via tail vein) was 59.0 ± 1.4 min.
With `CCCOC(=O)Cc1ccc(OCC(=O)N(CC)CC)c(OCC)c1` [Compound 1, [4-[(N,N-Diethylcarbamoyl)methoxy]-3-ethoxyphenyl]acetic acid propyl ester] the “Duration of Loss … of Infusion” value (rats; [1]) was 1.4 ± 0.1 min, the “Duration of Loss … of Infusion” value (rats; 3 hour Infusion via tail vein) was 1.7 ± 0.1 min and the “Duration of Loss … of Infusion” value (rats; 5 hour Infusion via tail vein) was 2.6 ± 1.0 min. For the same compound, the “dose required to produce 2 minutes of loss of righting reflex” value (guinea pigs) was 8 mg/kg.
With `CCCOC(=O)Cc1ccc(OCC(=O)N(CC)CC)c(OC)c1` [Propanidid, [4-[(N,N-diethylcarbamoyl)methoxy]-3-methoxyphenyl]acetic acid propyl ester] the “Duration of Loss … of Infusion” value (rats; [1]) was 1.6 ± 0.2 min, the “Duration of Loss … of Infusion” value (rats; 3 hour Infusion via tail vein) was 1.4 ± 0.1 min and the “dose required to produce 2 minutes of loss of righting reflex” value (guinea pigs) was 13 mg/kg.

Source: US7939689B2, “Short-acting sedative hypnotic agents for anesthesia and sedation” (Theravance, Inc., priority 2002, dated 2011)
